Reference: paper PMC5735085, “A 1-phytase type III effector interferes with plant hormone signaling” (Nature Communications, 2017)

Target: T1, HopAO1 (Pseudomonas syringae group genomosp. 3, UniProt Q79LY0)
T1 construct: gene hopD2; full-length, N-terminal 6xHis (pMCSG57-hopAO1, DNASU), E. coli BL21-CodonPlus(DE3)-RIL
Assay: in vitro phytate degradation
Assay type: biochemical

T1 sequence (Q79LY0 whole entry): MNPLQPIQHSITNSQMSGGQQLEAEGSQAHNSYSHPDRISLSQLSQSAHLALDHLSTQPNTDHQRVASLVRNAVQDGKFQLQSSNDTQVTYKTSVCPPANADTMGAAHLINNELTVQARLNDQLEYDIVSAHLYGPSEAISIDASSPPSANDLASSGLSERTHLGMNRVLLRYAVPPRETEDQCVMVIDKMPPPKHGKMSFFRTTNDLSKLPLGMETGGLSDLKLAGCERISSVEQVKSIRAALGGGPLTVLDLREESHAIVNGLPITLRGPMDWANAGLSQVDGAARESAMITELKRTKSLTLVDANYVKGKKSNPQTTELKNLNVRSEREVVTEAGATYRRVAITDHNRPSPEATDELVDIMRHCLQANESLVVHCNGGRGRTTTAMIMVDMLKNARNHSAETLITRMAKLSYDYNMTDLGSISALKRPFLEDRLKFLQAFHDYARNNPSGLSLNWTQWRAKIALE

In the case of `O=P(O)(O)O[C@H]1[C@H](OP(=O)(O)O)[C@@H](OP(=O)(O)O)[C@H](OP(=O)(O)O)[C@@H](OP(=O)(O)O)[C@H]1OP(=O)(O)O` [InsP6], the “in vitro phytate degradation” value is reported as “HopAO1 degraded phytate in vitro but, in contrast to XopH, to lower phosphorylated”.
